Read-outs that look alike come from different tables or passages of the source.
Assays:
[1] = tested on: soybean (Var. Clark); test: greenhouse growth regulator test on soybean (Table I); type: in vivo; settings: two weeks after application; for Injury (0-10): 0-10 scale, 0 = no effect, 10 = complete kill; for Height (% inhib.) / pest or weed control / pest or weed control at 2241.7 g/ha: relative to control; for pest or weed control / pest or weed control at 2241.7 g/ha: Glycine max, foliar, 336 h, read-out: Height (% inhib.)
Description: Limited greenhouse experiments shown that there is promotion of lateral bud growth when compounds are applied at higher concentrations and earlier timings and an increase in soybean pod numbers at lower rates applied just prior to or at the flowering stage. […] Three parameters are reported in Table I to indicate the general spectrum of activity for each evaluated compound including the propensity for releasing lateral bud growth in soybeans. These are: (a) plant height measured as percent inhibition relative to the control; (b) the number of lateral buds per plant; and (c) phytotoxic injury on a scale of 0 to 10 (10 being maximum injury). Sampling compounds were evaluated in the greenhouse in a special growth regulator test. Four to five soybean seeds (Var. Clark) were planted in 4-inch pots with a humus-soil mixture. Two weeks after planting, two uniform plants were selected from each pot for treatment. The candidate compounds were dissolved in acetone-water (1:1), and applied as a foliar spray in a carrier volume of 50 gallons per acre, using a moving belt sprayer at a rate of 1/4, 1/2 and 2 lbs/acre. Six plants were used for each treatment. Two weeks after application, the number of laterals per plant, plant injury (0-10 scale; 0 = no effect, 10 = complete kill,) and the height of each plant were recorded. Untreated plants were used as controls.

[2] = tested on: soybean (Var. Clark); test: effect of haloaniline derivatives on soybean yields at different rates and stages of growth (Table VIII); type: in vivo
Method: a further experiment was conducted to determine the effect of selected haloaniline derivatives on soybean yields at different rates of application, and at differing stages of growth.
Soybeans (Var. Clark) were planted at the rate of 4 seeds per 6 inch pot in a medium of 1 part humus and 2 parts soil. Two weeks after planting two uniform plants were selected from each pot for treatment. The soybeans were treated weekly with a high analysis liquid fertilizer. The candidate compounds were dissolved in acetone-water (1:1) and applied at three timings as a foliar spray in a carrier volume of 50 gallons per acre using a moving belt sprayer at rates ranging from 0.1 to two lbs. per acre. Six plants were used for each treatment. The beans were harvested eight weeks after the third treatment and the seeds and pods per plant were counted.

Structure (SMILES)	No. Laterals per plant ([1]; 1/2 lbs/acre foliar spray)	Injury (0-10) ([1]; 1/2 lbs/acre)	No. Laterals per plant ([1]; 1/4 lbs/acre foliar spray)	Injury (0-10) ([1]; 1/4 lbs/acre)	No. Laterals per plant ([1]; 2 lbs/acre foliar spray)	Injury (0-10) ([1]; 2 lbs/acre)	pest or weed control ([1]; 1/2 lbs/acre foliar spray) [%]	pest or weed control ([1]; 1/4 lbs/acre foliar spray) [%]	pest or weed control at 2241.7 g/ha ([1]; 2 lbs/acre foliar spray) [%]	Pods per Plant ([2]; 2nd treatment, 0.10 lbs./A)	Seeds per Plant ([2]; 2nd treatment, 0.10 lbs./A)	Seeds per Pod ([2]; 2nd treatment, 0.10 lbs./A)	Pods per Plant ([2]; 2nd treatment, 0.30 lbs./A)	Seeds per Plant ([2]; 2nd treatment, 0.30 lbs./A)	Seeds per Pod ([2]; 2nd treatment, 0.30 lbs./A)	Pods per Plant ([2]; 2nd treatment, 0.90 lbs./A)	Seeds per Plant ([2]; 2nd treatment, 0.90 lbs./A)	Seeds per Pod ([2]; 2nd treatment, 0.90 lbs./A)	Pods per Plant ([2]; 3rd treatment, 0.10 lbs./A)	Seeds per Plant ([2]; 3rd treatment, 0.10 lbs./A)	also measured
CCOC(CC)=Nc1cc(Cl)cc(Cl)c1 [XXII, Ethyl N-(3,5-dichlorophenyl)propionimidate]	3	1	1	2	3	1															
Clc1cc(Cl)cc(N=CNc2cc(Cl)cc(Cl)c2)c1 [XIV, N,N'-Bis[3,5-dichlorophenyl]formamidine]	3	3	1	2	4	0	11	13													Height (% inhib.) ([1]; 2 lbs/acre foliar spray): 4 % inhib.
Clc1cc(Cl)cc(N=Cc2c(Cl)cccc2Cl)c1 [VIII, 3,5-dichloro-N-(2,6-dichlorobenzylidene)aniline]	2	0	0	0	5	0	7	1	15												
Clc1cc(Cl)cc(N=Cc2ccccc2Cl)c1 [V, 3,5-dichloro-N-(2-chlorobenzylidine)aniline]	3	0	2	0	5	0	8	1	13												
Brc1cc(Br)cc(NCNc2cc(Br)cc(Br)c2)c1 [III, n,n'-bis[3,5-dibromophenyl]methanediamine]	0	1	0	1	3	1	2	0	0												
Clc1cc(Cl)cc(NCNc2cc(Cl)cc(Cl)c2)c1 [I, N,N'-Bis[3,5-dichlorophenyl]methanediamine]	3	0	1	0	5	1	4	5	17	24.5	42.7	1.7	14.5	9.3	0.6	9.0	4.3	0.5	7.0	12.8	Seeds per Pod ([2]; 3rd treatment, 0.10 lbs./A): 1.8; Pods per Plant ([2]; 3rd treatment, 0.30 lbs./A): 8.3; Seeds per Plant ([2]; 3rd treatment, 0.30 lbs./A): 13.3; Seeds per Pod ([2]; 3rd treatment, 0.30 lbs./A): 1.6; Pods per Plant ([2]; 3rd treatment, 0.90 lbs./A): 7.2; Seeds per Plant ([2]; 3rd treatment, 0.90 lbs./A): 13.3; Seeds per Pod ([2]; 3rd treatment, 0.90 lbs./A): 1.5
Clc1cc(Cl)cc(N=Cc2ccccc2)c1 [IV, 3,5-dichloro-N-benzylideneaniline]	2	0	3	0	5	1	5	7	17	8.3	8.3	1.0	0.7	1.0	1.5	2.7	3.2	1.2	16.5	37.0	Seeds per Pod ([2]; 3rd treatment, 0.10 lbs./A): 2.2; Pods per Plant ([2]; 3rd treatment, 0.30 lbs./A): 13.2; Seeds per Plant ([2]; 3rd treatment, 0.30 lbs./A): 23.3; Seeds per Pod ([2]; 3rd treatment, 0.30 lbs./A): 1.7; Pods per Plant ([2]; 3rd treatment, 0.90 lbs./A): 19.3; Seeds per Plant ([2]; 3rd treatment, 0.90 lbs./A): 37.7; Seeds per Pod ([2]; 3rd treatment, 0.90 lbs./A): 1.9
O=CNc1cc(Cl)cc(Cl)c1 [XVIII, 3',5'-dichloroformanilide]	5	1	4	0	5	1	11	3	15	16.2	17.5	1.1	9.2	6.3	0.7	0.5	0.5	1.0	9.3	15.2	Pods per Plant ([2]; 1st treatment, 0.25 lbs./A): 1.4; Seeds per Plant ([2]; 1st treatment, 0.25 lbs./A): 0.0; Seeds per Pod ([2]; 1st treatment, 0.25 lbs./A): 0.0; Pods per Plant ([2]; 1st treatment, 0.50 lbs./A): 0.8; Seeds per Plant ([2]; 1st treatment, 0.50 lbs./A): 1.0; Seeds per Pod ([2]; 1st treatment, 0.50 lbs./A): 1.3; Pods per Plant ([2]; 1st treatment, 1.00 lbs./A): 0.0; Seeds per Plant ([2]; 1st treatment, 1.00 lbs./A): 0.0; Seeds per Pod ([2]; 1st treatment, 1.00 lbs./A): 0.0; Pods per Plant ([2]; 1st treatment, 2.00 lbs./A): 0.0; Seeds per Plant ([2]; 1st treatment, 2.00 lbs./A): 0.0; Seeds per Pod ([2]; 1st treatment, 2.00 lbs./A): 0.0; Seeds per Pod ([2]; 3rd treatment, 0.10 lbs./A): 1.6; Pods per Plant ([2]; 3rd treatment, 0.30 lbs./A): 5.2; Seeds per Plant ([2]; 3rd treatment, 0.30 lbs./A): 10.5; Seeds per Pod ([2]; 3rd treatment, 0.30 lbs./A): 2.0; Pods per Plant ([2]; 3rd treatment, 0.90 lbs./A): 5.2; Seeds per Plant ([2]; 3rd treatment, 0.90 lbs./A): 9.5; Seeds per Pod ([2]; 3rd treatment, 0.90 lbs./A): 1.8
Cl.Clc1cc(Cl)cc(N=CNc2cc(Cl)cc(Cl)c2)c1 [XX, N,N'-Bis[3,5-dichlorophenyl]formamidine hydrochloride]	4	2	2	2	6	0															Height (% inhib.) ([1]; 1/2 lbs/acre foliar spray): 19 % inhib.; Height (% inhib.) ([1]; 1/4 lbs/acre foliar spray): 10 % inhib.; Height (% inhib.) ([1]; 2 lbs/acre foliar spray): 44 % inhib.
Clc1ccc(C=Nc2ccc(Cl)c(Cl)c2)cc1 [XI, 3,4-dichloro-N-(4-chlorobenzylidene)aniline]	5	1	1	0	4	3	25	4	14												
Clc1ccc(N=Cc2ccccc2)cc1Cl [XIII, 3,4-Dichloro-N-benzylideneaniline]	4	0	2	1	3	4	9	17	19	13.7	20.5	1.5	12.0	17.7	1.5	5.2	6.7	1.3	5.5	7.8	Seeds per Pod ([2]; 3rd treatment, 0.10 lbs./A): 1.4; Pods per Plant ([2]; 3rd treatment, 0.30 lbs./A): 11.0; Seeds per Plant ([2]; 3rd treatment, 0.30 lbs./A): 17.2; Seeds per Pod ([2]; 3rd treatment, 0.30 lbs./A): 1.6; Pods per Plant ([2]; 3rd treatment, 0.90 lbs./A): 9.3; Seeds per Plant ([2]; 3rd treatment, 0.90 lbs./A): 16.7; Seeds per Pod ([2]; 3rd treatment, 0.90 lbs./A): 1.8
CCOC=Nc1cc(Cl)cc(Cl)c1 [XVI, Ethyl N-(3,5-dichlorophenyl)formimidate]	4	1	2	1	5	2	2	0	22												

Reference: patent publication US4119667A, “Haloaniline derivatives as plant growth modifiers” (Rohm and Haas Company, priority 1974, dated 1978)
